Test results reported in patent publication US9790469B2, “Established human brown adipocyte line and method for differentiation from an hMADS cell line” (CENTRE NATIONAL DE LA RECHERCHE SCIENTIFIQUE (CNRS), priority 2008, dated 2017).

Columns and labels:
[1] = tested on: human brown adipocytes immortalized by transgenesis and expressing β3-adrenergic receptors; conditions: Zilberfarb 1997; Jockers 1998; cited from earlier work
hMADS-2 cells [2] = assay: Stimulation of UCP1 expression by β-adrenergic agonists in hMADS-2 cells differentiated into brown adipocytes; format: cell-based, human; conditions: stimulation for 6 h at 10-100 nM; cells with 100 nM rosiglitazone days 3 to 16
Description: A) adipocytic differentiation of hMADS-2 cells was carried out in the presence of 100 nM rosiglitazone on the days indicated and mRNA levels were determined on day 17 by quantitative RT-PCR. (B, C) differentiation was obtained in the presence of 100 nM rosiglitazone between days 3 and 16, in the absence or the presence during the 6 last hours of β-adrenergic agonists at the indicated concentrations. The results represent the mean±SD of 3 (A) and 2 (B) independent experiments carried out with various series of cells; they are expressed by taking as 100% the values obtained either during treatment between days 3 and 9 (A) or in the absence of β-adrenergic agonists (B, C).
RNA purification and analysis: RNA extraction, the use of reverse transcriptase and determination of mRNA levels by real-time quantitative RT-PCR have been described (Zaragosi, L. E et al., Stem Cells, 2006. 24(11): p. 2412-9; Elabd, C, et al., Biochem Biophys Res Commun, 2007. 361(2): p. 342-8; Bezy, O., et al., J Biol Chem, 2005. 280(12): p. 11432-8). Expression of the genes of interest was normalized compared with the one of the TBP gene and was quantified using the ΔCt comparative method. […]
Immunoblot analysis: Total cellular lysates are analyzed by immunoblot as previously described (Bezy, O., et al., J Biol Chem, 2005. 280(12): p. 11432-8). […]

[3] = tested on: hMADS-2 cells differentiated into white adipocytes; assay: Induction of a brown phenotype in hMADS-2 cells previously differentiated into white adipocytes; format: cell-based, human; conditions: for expression of the UCP1 protein: exposure between days 14 and 16 with specific PPAR ligands; for UCP1 gene expression: replacement of rosiglitazone, 10 μM, results not shown
Description: Initially hMADS-2 cells were differentiated into white adipocytes with 100 nM rosiglitazone present between days 3 and 9. Once eliminated, the ligand is added or not added on day 14 and during the following days at the indicated […] concentrations.
The results are expressed as stimulation factor by taking as 1 the values obtained on day 16 after exposure to 100 nM rosiglitazone between days 3 and 9; the values represent the mean±SD of 2 independent experiments carried out with various series of cells.
(§1) Expression of the genes of interest was normalized compared with the one of the TBP gene and was quantified using the ΔCt comparative method. The sequences of oligonucleotide primers, obtained using the Primer Express Software (Perkin Elmer Life Sciences), are described in Table 1 below.
The primary antibodies obtained from the rabbit, anti-human UCP1 and anti-TBP, are products from Santa Cruz Biotechnology (Santa Cruz, Calif., USA) and the secondary antibodies (conjugated with horseradish peroxidase) are products from Promega (Charbonnières, France). The “Enhanced Chemiluminescence” system (Millipore, Saint-Quentin-Yvelines, France) was used for detection.

hMADS-2 cells [4] = assay: Adipocytic differentiation of hMADS-2 cells (Oil Red O lipid staining, GPDH activity, PPARγ mRNA); format: cell-based, human
From the text: as §1

hMADS-2 cells [5] = assay: Oxygen consumption and respiratory uncoupling of hMADS-2 cells (respirometer); format: cell-based, human
Description: On day 20, oxygen consumption (A), decoupling of oxidative phosphorylation (B) and stimulation of oxygen consumption by isoprenaline (C) were measured according to the protocol described in “Materials and Methods”. […] Determination of oxygen consumption: Oxygen consumption was measured using two-chamber injection respirometer equipped with a Peltier thermostat, Clark electrodes and integrated magnetic stirrers (Oroboros, Innsbruck, Austria). Measurements were made at 37° C. with constant stirring in a volume of 2 ml of DMEM/F12 medium (1:1, v/v) containing 10% fetal calf serum. Before each measurement, the medium present in the chambers was equilibrated with air for 30 min, and then the freshly-trypsinized cells were transferred to this medium. […] The respiratory chain was blocked with 1 μg/ml antimycin A. Oxygen consumption was calculated using the DataGraph software (Oroboros Software). Basal respiratory activity corresponds to oxygen consumption sensitive to antimycin A. Respiratory activity was stimulated in the presence of 1 μM isoprenaline added extemporaneously in the injection chamber, with measurements made as described above.

hMADS-2 cells [6] = assay: Expression of brown adipocyte markers and related genes in hMADS-2 cells (quantitative RT-PCR, immunoblot); format: cell-based, human; conditions: brown phenotype; ratio 1 for the white phenotype (days 3 to 9)
Description: Differentiation of hMADS-2 cells was carried out as described in FIG. 1. On day 16, levels of UCP1 (A), UCP2 (C), CIDEA (D) and CPT1B (E) mRNA were determined by quantitative RT-PCR. The results represent the mean±SD of 3 independent experiments carried out with various series of cells; they are expressed by taking as 100% the value obtained in the presence of 500 nM rosiglitazone. Levels of the UCP1 protein (B) were determined by immunoblotting on 2 different series of cells using TBP as endogenous internal standard.
Adipocytic differentiation of hMADS-2 cells was carried out in the presence of either rosiglitazone at 100 nM (A) or at the indicated concentrations (B). Levels of PRDM16, PGC-1α, PGC-1β and PPARα mRNA were determined by quantitative RT-PCR on day 16 (A) and day 17 (B). […]
Adipocytic differentiation of hMADS-2 cells was carried out in the presence of 100 nM rosiglitazone. On day 16, Bcl-2 and Bax mRNA levels were determined by quantitative RT-PCR. […]
RNA purification and analysis: RNA extraction, the use of reverse transcriptase and determination of mRNA levels by real-time quantitative RT-PCR have been described (Zaragosi, L. E et al., Stem Cells, 2006. 24(11): p. 2412-9; Elabd, C, et al., Biochem Biophys Res Commun, 2007. 361(2): p. 342-8; Bezy, O., et al., J Biol Chem, 2005. 280(12): p. 11432-8). […]

[7] = 100 nM, days 3 to 20 (brown) versus days 3 to 9 (white)

Molecule: CC(C)(C)NCC(O)COc1cccc2[nH]c(=O)[nH]c12 (stereo not shown) [CGP12177A]
- lipolytic activity [1]: only weak lipolytic activity

Molecule: C[C@H](Cc1ccc2c(c1)OC(C(=O)[O-])(C(=O)[O-])O2)NC[C@H](O)c1cccc(Cl)c1.[Na+].[Na+] [CL316243]
- expression of UCP1 mRNA and UCP1 protein (hMADS-2 cells [2]): significantly increased

Molecule: O=C(Nc1ccccc1)c1cc([N+](=O)[O-])ccc1Cl [GW 9662]
- expression of the UCP-1 gene ([3]; PPARγ antagonist added, cells differentiated beforehand into white adipocytes): does not allow expression of the UCP-1 gene
- differentiation of hMADS cells into adipocytes (hMADS-2 cells [4]; PPARγ antagonist added to the differentiation medium): prevents

Molecule: CCCc1c(OCCCOc2ccc(OCC(=O)O)cc2)ccc(C(C)=O)c1O [L165041]
- expression of the UCP1 protein [3]: not inducing the expression of the UCP1 protein

Molecule: Cc1cccc(Nc2cc(Cl)nc(SCC(=O)O)n2)c1C [Wy14643]
- expression of the UCP1 protein [3]: not inducing the expression of the UCP1 protein

Molecule: CCCCC/C=C\C/C=C\C/C=C\C/C=C\CCCC(=O)O [arachidonic acid]
- UCP1 gene expression [3]: no effect

Molecule: CC/C=C\C/C=C\C/C=C\C/C=C\C/C=C\C/C=C\CCC(=O)O [docosahexaenoic acid]
- UCP1 gene expression [3]: no effect

Molecule: CC/C=C\C/C=C\C/C=C\C/C=C\C/C=C\CCCC(=O)O [eicosapentaenoic acid]
- UCP1 gene expression [3]: no effect

Molecule: CC(C)NCC(O)c1ccc(O)c(O)c1 (stereo not shown) [isoproterenol]
- stimulation of oxygen consumption (hMADS-2 cells [5]; 1 μM, cells with brown phenotype): important stimulation
- expression of UCP1 mRNA and UCP1 protein (hMADS-2 cells [2]): significantly increased

Molecule: CN(CCOc1ccc(CC2SC(=O)NC2=O)cc1)c1ccccn1 (stereo not shown) [rosiglitazone]
- ratio of Bcl-2 to Bax (hMADS-2 cells [6]): 3.7
- increase factor of total respiratory activity (hMADS-2 cells [5]; [7]): 3
- increase factor of uncoupled respiratory activity (hMADS-2 cells [5]; [7]): 2.5

B1: BMP7: Bone Morphogentic Protein 7 (BMP7) (protein, UniProt P18075 293-431, looked up)
Bone morphogenetic protein 7: STGSKQRSQNRSKTPKNQEALRMANVAENSSSDQRQACKKHELYVSFRDLGWQDWIIAPEGYAAYYCEGECAFPLNSYMNATNHAIVQTLVHFINPETVPKPCCAPTQLNAISVLYFDDSSNVILKKYRNMVVRACGCH
- UCP-1 protein expression ([3]; cells differentiated beforehand into white adipocytes): weak increase
- differentiation of hMADS cells into adipocytes (hMADS-2 cells [4]; BMP7 alone, in the absence of rosiglitazone): does not enable their differentiation into adipocytes
